Data: patent US11187660B2, “Fluorescent probes for monitoring voltage by photo-induced electron transfer” (The Regents of the University of California, priority 2011, dated 2021)

Test system: rat hippocampal neurons
Experiment: Optical detection of evoked action potentials in cultured hippocampal neurons
Assay type: cell-based
Experimental: To assay VF2.4.Cl's utility for monitoring neuronal activity, hippocampal neurons isolated from rats neonates were loaded with 2 μM VF2.4.Cl for 15 minutes, washed twice and imaged. […] Neurons were patched, current clamped, and injected with a small pulse (250-400 pA, 1-5 ms) to induce action potential firing. By using a high speed EMCCD camera, capable of sampling small regions of interest (ROI) at rates of approximately 2 kHz, enabled single trial optical detection of action potentials. An action potential with a total voltage change of ˜130 mV was well resolved optically and gave a ΔF/F of 24% with a signal-to-noise ratio of 16. Smaller spikes were detectable as well, a 100 mV change gave a ΔF/F of 15% with an SNR of 15. The slightly diminished sensitivity in neurons (0.15% per mV in neurons vs 0.25% per mV in HEK cells) can be explained primarily by the heterogeneous nature of the preparation; overlapping, non-excitable membranes loaded with VF2.4.Cl contribute to a non-responsive fluorescent signal which dilutes the responsive fraction.
To assess whether VF probes can detect action potentials in single trials, we used cultured rat hippocampal neurons. […] We then injected current into a neuron under whole-cell patch-clamp mode to trigger single action potentials and used a high-speed, back-illuminated EMCCD camera to track fast optical signals from VF2.4.Cl, enabling us to resolve action potentials in neurons in single sweeps (FIG. 13B). The optical trace matched the physiology trace and gave about a 20% ΔF/F increase in fluorescence and a 16:1 signal-to-noise ratio (SNR) in a single trial.
HEK293 cells were cultured in DMEM (CellGrow) supplemented with 10% FBS, 1% penicillin/streptomycin (Invitrogen) and plated on glassbottom culture dishes (35 mm dish, 14 mm microwell with No. 0 coverglass) (MatTek Corporation). Hippocampal neurons were dissected from postnatal day 0 or 1 rat pups and plated on poly-D-lysine-coated glassbottom culture dishes. Neuronal recordings were made 14-28 days in culture.
Electrophysiological recordings of HEK293 cells and cultured neurons were performed with an Axopatch 200A or 200B amplifier (Molecular Devices) at room temperature. The signals were digitized with Digidata 1332A and recorded with pCLAMP 9 software (Molecular Devices) on a PC. Analysis of electrophysiological data was done with AxoGraph X (AxoGraphX), pCLAMP 9, and/or ClampFit (Molecular Devices). For most experiments the extracellular solution consisted of (in mM) 145 NaCl, 20 glucose, 10 HEPES, 3 KCl, 2 CaCl2, 1 MgCl2 (pH 7.35, 310 mOsm). The intracellular solution contained (in mM) 115 potassium gluconate, 10 BAPTA tetrapotassium salt, 10 HEPES, 5 NaCl, 10 KCl, 2 ATP disodium salt, 0.3 GTP trisodium salt (pH 7.25, 290 mOsm).
For voltage sensitivity measurements, regions of interest were drawn around clamped cells and the mean fluorescence measured in ImageJ or Slidebook. For HEK cells, background fluorescence was subtracted by measuring the fluorescence where no cells grew. For experiments in neurons, the background fluorescence was not subtracted. In all cases, ΔF/F was calculated by dividing the fluorescence signal by the average fluorescence for a baseline of 10-20 frames prior to stimulation.

With `CCCCN(CCCC)c1ccc(/C=C/c2ccc(/C=C/c3ccc(-c4c5cc(Cl)c(=O)cc-5oc5cc(O)c(Cl)cc45)c(S(=O)(=O)O)c3)cc2)cc1` [VF2.4.Cl, 5-(4-(4-(dibutylamino)styryl)styryl)-2-(2,7-dichloro-6-hydroxy-3-oxo-3H-xanthen-9-yl)benzenesulfonic acid] the SNR (100 mV change) was 15, the “ΔF/F for smaller spike” value (100 mV change) was 15% and the signal-to-noise ratio (action potential ~130 mV, single trial) was 16. For the same molecule, the sensitivity in neurons (rat hippocampal neurons) was 0.15 % per mV, the “ΔF/F increase in fluorescence for evoked action potential” value (single trial, 2 μM, EMCCD 2 kHz) was ~20% and the “ΔF/F for action potential” value (total voltage change ~130 mV, single trial, 2 μM) was 24%.
